Experimental findings from patent US9273095B2, “Antibiotic peptide and preparation method therefor and application therefor” (priority 2011, dated 2016) are described below.

The subject of assay [1] is Staphylococcus aureus ATCC25923. Nature of the assay: Anti-infection test of externally-applied agent on skin, viable count. It is filed as in vivo, ICR mice. The following applies: for viable count, Liver (1:5) / viable count, Skin (1:10) / viable count, Spleen (1:5) / viable count, Whole blood: 0.1 ml morning and evening for 7 days, n = 10; for inhibition of skin infection (in words): externally-applied agent, twice daily for 7 days, Staphylococcus aureus. An excerpt: (§1) 1. Experimental Strains: Staphylococcus epidermidis ATCC12228 and Staphylococcus aureus ATCC25923
(§2) There are 50 male ICR mice with the weight of 20±2 g. According to their weight, they are randomly divided into 5 groups of 10 mice: negative infected control group, Bactroban positive control group, 1% concentration cream group, 1‰ concentration cream group and blank ground substance group. Each group is raised in the same plastic case. Their blank parts, heads, necks, backs and tails are marked with picric acid marking method. All the mice are raised with ordinary animal feeds in the ordinary animal houses and they could drink water freely. Alternating of light and dark is conducted every 12 hours.
(§3) There are preparation of 1% concentration, 1‰ concentration, and blank ground substance preparation (supplied by Jiangsu ProteLight Pharmaceutical & Biotechnology Co., LTD.) and Bactroban (supplied by SK&F).
(§4) (1) The bacteria strains which preserved in liquid nitrogen are inoculated to MHB plate and cultured overnight at 37° C.
(§5) (2) The solid strains are inoculated to MHB liquid medium and overnight cultured shakily at the speed of 220 rpm at 37° C.
(§6) (3) The bacterial suspension cultured overnight is diluted to 5×10^6CFU/ml and applied in reserve.
(§7) (4) Skin modeling: Mice's back are sheared and depilated by depilatory paste. After the hair off, they are abraded with 0.3 mm-long sandpaper to bleeding and injected 0.1 ml bacterial suspension with the concentration of 5×10^6CFU/ml subcutaneously.
(§8) (5) Administration: All the groups except the negative infected control group are respectively applied different cream with the dosage of 0.1 ml once respectively in the morning and evening for 7 days.
(§9) (6) After 7 days, the visceral organs, blood and infected skin of mice are collected by aseptic method to count viable bacteria.

Assay [2] concerns Staphylococcus epidermidis ATCC12228. Described as above. The format is in vivo, ICR mice. The following applies: for viable count, Liver (1:5) / viable count, Skin (1:10) / viable count, Spleen (1:5) / viable count, Whole blood: 0.1 ml morning and evening for 7 days, n = 10; for inhibition of skin infection (in words): externally-applied agent, twice daily for 7 days, Staphylococcus epidermidis.
Description: as §1, §2, §3, §4, §5, §6, §7, §8, §9

Non-standard residues stand in square brackets, D forms with d. Residues, ends and D or L forms follow the SMILES beside them.

Consider `CC(=O)N[C@H](Cc1ccccc1)C(=O)N[C@H](CCCCN)C(=O)N[C@H](CCCCN)C(=O)N[C@H](CC(C)C)C(=O)N[C@H](CCCCN)C(=O)N[C@H](CCCCN)C(=O)N[C@H](CC(C)C)C(=O)N[C@H](Cc1ccccc1)C(=O)N[C@H](CO)C(=O)N[C@H](CCCCN)C(=O)N[C@H](CC(C)C)C(=O)N[C@H](Cc1c[nH]c2ccccc12)C(=O)N[C@H](CC(N)=O)C(=O)N[C@H](Cc1c[nH]c2ccccc12)C(=O)N[C@H](CCCCN)C(N)=O` [PL-18] (Ac-[dF][dK][dK][dL][dK][dK][dL][dF][dS][dK][dL][dW][dN][dW][dK]-NH2), for which the “viable count, Liver (1:5)” value in assay [1] (1% externally-applied agent) was found to be 9 CFU/plate; in assay [1] (1‰ externally-applied agent), 11 CFU/plate; in assay [2] (1% externally-applied agent), 17 CFU/plate; in assay [2] (1‰ externally-applied agent) it was 8 CFU/plate. Further, the “viable count, Skin (1:10)” value is on record as 997 CFU/plate in assay [1] (1% externally-applied agent), 1051 CFU/plate in assay [1] (1‰ externally-applied agent), 276 CFU/plate in assay [2] (1% externally-applied agent) and 425 CFU/plate in assay [2] (1‰ externally-applied agent). Moreover, the “viable count, Spleen (1:5)” value in assay [1] (1% externally-applied agent) was 8 CFU/plate; in assay [1] (1‰ externally-applied agent), 15 CFU/plate; in assay [2] (1% externally-applied agent), 5 CFU/plate; in assay [2] (1‰ externally-applied agent) it was 13 CFU/plate. The “viable count, Whole blood” value is reported as 16 CFU/plate in assay [1] (1% externally-applied agent), 12 CFU/plate in assay [1] (1‰ externally-applied agent), 16 CFU/plate in assay [2] (1% externally-applied agent) and 19 CFU/plate in assay [2] (1‰ externally-applied agent). For the same compound, the “inhibition of skin infection (in words)” value in assay [1] and in assay [2] was “effective” throughout.

As for Ac-FKKLKKLFSKLWNWK-NH2 [PL-13], the “viable count, Liver (1:5)” value worked out at 10 CFU/plate in assay [1] (1% externally-applied agent), 12 CFU/plate in assay [1] (1‰ externally-applied agent), 12 CFU/plate in assay [2] (1% externally-applied agent) and 10 CFU/plate in assay [2] (1‰ externally-applied agent). In addition, the “viable count, Skin (1:10)” value was determined as 852 CFU/plate in assay [1] (1% externally-applied agent), 1005 CFU/plate in assay [1] (1‰ externally-applied agent), 369 CFU/plate in assay [2] (1% externally-applied agent) and 425 CFU/plate in assay [2] (1‰ externally-applied agent). In addition, the “viable count, Spleen (1:5)” value in assay [1] (1% externally-applied agent) stood at 6 CFU/plate; in assay [1] (1‰ externally-applied agent), 14 CFU/plate; in assay [2] (1% externally-applied agent) it was 5 CFU/plate; in assay [2] (1‰ externally-applied agent), 17 CFU/plate. Further, the “viable count, Whole blood” value in assay [1] (1% externally-applied agent) amounted to 8 CFU/plate; in assay [1] (1‰ externally-applied agent), 11 CFU/plate; in assay [2] (1% externally-applied agent) it was 10 CFU/plate; in assay [2] (1‰ externally-applied agent), 18 CFU/plate. For the same compound, the “inhibition of skin infection (in words)” value in assay [1] and in assay [2] was “effective” throughout.
